According to publication PMC5453931, “Cathelicidin-trypsin inhibitor loop conjugate represents a promising antibiotic candidate with protease stability” (Scientific Reports, 2017):
Converted amounts (≈) assume the structure as drawn. Where a SMILES comes first, the peptide text is derived from it. Bridges are numbered along the chain shown (N, C = ends).

Assays:
trypsin = assay: Trypsin inhibition assay (NBLAN hydrolysis, Dixon method); type: biochemical; conditions: 50 mM Tris–HCl pH 7.8, trypsin 0.1 mg/mL, 5 min pre-incubation at 37 °C, substrate NBLAN 48, 96, 192 μg/mL, 405 nm
Experimental: The inhibition effect on the hydrolysis of synthetic chromogenic substrate by trypsin was assayed in 50 mM Tris–HCl, pH 7.8 buffer at room temperature. The trypsin of final concentration of 0.1 mg/mL and different amounts of the hybrid peptide (final concentrations ranging from 0 to 0.16 μg/mL) were pre-incubated for 5 min at 37 °C. N-α-Benzoyl-DL-arginine p-nitroanilide hydrochloride (NBLAN) was used as a substrate for trypsin. The reaction was initiated by the addition of NBLAN with a final concentration of 48, 96 and 192 μg/mL, respectively. The formation of yellow product, p-nitroaniline was monitored continuously at 405 nm[61]. The inhibition constant Ki of the hybrid peptides were determined according to the method of Dixon (1953)[62].

Proteus mirabilis 1376 = assay: microbe, parasite or virus in culture; type: cell-based; conditions: Gram-negative; two-fold broth microdilution, MH broth, 37 °C, 18 h; mean of three independent experiments in duplicates
Experimental: (§1) A two-fold broth microdilution method described in our previous paper was used to determine the antimicrobial activities of parental and hybrid peptides. More than 30 strains including Gram-negative bacteria, Gram-positive bacteria and fungi were used in the current assay, in which the standard strains were stored in our lab and the clinical strains were collected from local hospitals. Briefly, bacteria were incubated in Mueller-Hinton broth (MH broth) at 37 °C to exponential phase and diluted to 10^6 CFU/mL. A serial dilution of peptide sample were prepared in 96-well microtiter plates (50 μL) and mixed with equal volume of microbial inoculums (50 μL). The plate was slowly shaken in the microbial incubator, and measured at A595 after incubation at 37 °C for 18 h. The minimal concentrations at which no microbial growth occurred were recorded as MIC (minimal inhibitory concentration) values. The traditional antibiotic ampicillin was used as positive control. The results are shown in an average of the MICs obtained from three independent experiments.

[1] = tested on: Candida albicans 08030102; assay: microbe, parasite or virus in culture; type: cell-based; conditions: 08030102, 18 h
Experimental: as §1

Aeromonas sobria = assay: microbe, parasite or virus in culture; type: cell-based; conditions: 18 h
Experimental: as §1

Vibrio brasiiensis = assay: microbe, parasite or virus in culture; type: cell-based; conditions: 18 h
Experimental: as §1

S. Maltophilia 090223 = assay: microbe, parasite or virus in culture; type: cell-based; conditions: 090223, 18 h
Experimental: as §1

Vibrio harveyi = assay: microbe, parasite or virus in culture; type: cell-based; conditions: 18 h
Experimental: as §1

E. Coli 08032823 = assay: microbe, parasite or virus in culture; type: cell-based; conditions: 08032823, 18 h
Experimental: as §1

Edwardsiella tarda = assay: microbe, parasite or virus in culture; type: cell-based; conditions: Aquatic pathogenic bacteria; two-fold broth microdilution, 37 °C, 18 h; mean of three independent experiments in duplicates
Experimental: as §1

[2] = tested on: Nocardia asteroides 08052412; assay: microbe, parasite or virus in culture; type: cell-based; conditions: 18 h
Experimental: as §1

Candida glabrata 08A802 = assay: microbe, parasite or virus in culture; type: cell-based; conditions: 08A802, 18 h
Experimental: as §1

P. Aeruginosa 08021015 = assay: microbe, parasite or virus in culture; type: cell-based; conditions: Gram-negative; two-fold broth microdilution, MH broth, 37 °C, 18 h; mean of three independent experiments in duplicates
Experimental: as §1

K. Pneumoniae 08040202 = assay: microbe, parasite or virus in culture; type: cell-based; conditions: Gram-negative; two-fold broth microdilution, MH broth, 37 °C, 18 h; mean of three independent experiments in duplicates
Experimental: as §1

S. Aureus 08032706 = assay: microbe, parasite or virus in culture; type: cell-based; conditions: Gram-positive; two-fold broth microdilution, MH broth, 37 °C, 18 h; mean of three independent experiments in duplicates
Experimental: as §1

S. Aureus 08032810 = assay: microbe, parasite or virus in culture; type: cell-based; conditions: Gram-positive; two-fold broth microdilution, MH broth, 37 °C, 18 h; mean of three independent experiments in duplicates
Experimental: as §1

S. Aureus 08032615 = assay: microbe, parasite or virus in culture; type: cell-based; conditions: Gram-positive; two-fold broth microdilution, MH broth, 37 °C, 18 h; mean of three independent experiments in duplicates
Experimental: as §1

K. Pneumoniae 08031012 = assay: microbe, parasite or virus in culture; type: cell-based; conditions: Gram-negative; two-fold broth microdilution, MH broth, 37 °C, 18 h; mean of three independent experiments in duplicates
Experimental: as §1

[3] = tested on: Escherichia coli ATCC25922; assay: microbe, parasite or virus in culture; type: cell-based; conditions: ATCC25922, 18 h
Experimental: as §1

Vibrio cholerae = assay: microbe, parasite or virus in culture; type: cell-based; conditions: 18 h
Experimental: as §1

[4] = tested on: Enterococcus faecium 08052315; assay: microbe, parasite or virus in culture; type: cell-based; conditions: 08052315, 18 h
Experimental: as §1

[5] = tested on: Bacillus subtilis 08042313; assay: microbe, parasite or virus in culture; type: cell-based; conditions: 08042313, 18 h
Experimental: as §1

Aeromonas veronii = assay: microbe, parasite or virus in culture; type: cell-based; conditions: 18 h
Experimental: as §1

E. coli 08040726 [6] = assay: MIC, two-fold broth microdilution (second listing of the strain number); type: cell-based; conditions: Gram-negative, MH broth, 37 °C, 18 h, mean of three independent experiments in duplicates
Experimental: as §1

E. coli 08040726 [7] = assay: Bacterial killing kinetic assay, colony counting; type: cell-based
Experimental: The bacterial killing kinetics of the hybrid peptides against E. coli 08040726 was determined by counting the changes in the viable bacterial clones after peptide treatment. The experiment was carried out according to the method described previously with minor modifications. Fresh colonies of the bacteria were incubated in MH broth at 37 °C for 12 h and diluted to 10^6 CFU/in fresh MH broth. The hybrid peptide was added to the bacterial suspension with a final concentration of 1x and 5x corresponding MICs, and incubated at 37 °C for 0, 10, 20, 30, 45, 60, 90, 120, and 180 mins. At each time point, aliquots (50 μL) were removed and diluted with fresh MH broth for 1000 times. […] of the dilutions were coated on MH agar plates, incubated overnight at 37 °C, and the viable colonies were counted. Ampicillin was used as positive control and sterile deionized water was used as negative control.

[8] = tested on: Staphylococcus epidermidis; assay: MIC, two-fold broth microdilution; type: cell-based; conditions: Gram-positive; two-fold broth microdilution, MH broth, 37 °C, 18 h; mean of three independent experiments in duplicates
Experimental: as §1

E. Coli 08032813 = assay: MIC, two-fold broth microdilution; type: cell-based; conditions: Gram-negative; two-fold broth microdilution, MH broth, 37 °C, 18 h; mean of three independent experiments in duplicates
Experimental: as §1

Vibrio Parahaemolyticus = assay: MIC, two-fold broth microdilution; type: cell-based; conditions: Aquatic pathogenic bacteria; two-fold broth microdilution, 37 °C, 18 h; mean of three independent experiments in duplicates
Experimental: as §1

[9] = tested on: established C. albicans biofilm; assay: Biofilm disruption assay, established biofilm (XTT, PI/SYBR Green I); type: cell-based
Experimental: TIH3F that has the best antifungal activity among the four peptides was chosen to examine the effect on the C. albicans biofilm formation and the established biofilm using previously described method with minor modifications. In the biofilm inhibition assay, after the incubation at 35 °C, C. Albicans was diluted to 1 × 10^6 CFU/mL in RPMI-1640 medium. Then 2 mL culture was added to each well of 6-well plates with coverslips at the bottom, and incubated at 35 °C in a humid chamber for 3 h. Non-adherent cells were then washed away by PBS, and series concentrations of TIH3F (0, 1, 2, 4 μg/mL) were added into the plate, with amphotericin B as control. The formation of the biofilm was determined by the XTT Cell Proliferation and Cytotoxicity Kit (KeyGEN BioTECH, Nanjing, China) after 36-h incubation. In the biofilm disruption assay, the biofilm was preformed as described above but with a longer incubation time up to 72 h. Then TIH3F and amphotericin B of series concentrations (0, 2.5, 5, 10, 25, 50 μg/mL) was added after non-adherent cells were washed out. The measurement of remaining biofilm was then determined. In order to further confirm the antifungal effect of TIH3F against C. albicans encased in biofilms, the established biofilm was treated with TIH3F (0, 5, 50 μg/mL), washed three times with PBS, and finally stained with 1 mL 1000-fold diluted PI/SYBR Green I at 30 °C in the dark for 20 min. After washing with PBS, the plate was immediately photographed with fluorescence microscope.

CC[C@H](C)[C@@H]1NC(=O)[C@H](CO)NC(=O)[C@H](CCCCN)NC(=O)[C@H]([C@@H](C)O)NC(=O)[C@H](Cc2c[nH]c3ccccc23)NC(=O)[C@@H](NC(=O)[C@H](Cc2ccccc2)NC(=O)[C@H](CCCCN)NC(=O)[C@H](CCCCN)NC(=O)[C@H](Cc2ccccc2)NC(=O)[C@H](C)NC(=O)[C@H](CCCNC(=N)N)NC(=O)[C@H](CCCNC(=N)N)NC(=O)[C@H](Cc2ccccc2)NC(=O)[C@H](CO)NC(=O)[C@H](CCCCN)NC(=O)[C@H](Cc2ccccc2)NC(=O)[C@H](Cc2ccccc2)NC(=O)[C@H](CCCNC(=N)N)NC(=O)[C@H](CCCCN)NC(=O)[C@H](Cc2ccccc2)NC(=O)[C@H](Cc2ccccc2)NC(=O)[C@@H](N)CCCCN)CSSC[C@@H](C(=O)O)NC(=O)[C@@H]2CCCN2C(=O)[C@H](CCCCN)NC(=O)[C@@H]2CCCN2C(=O)[C@@H]2CCCN2C1=O [H3TIF] (H-KFFKRFFKSFRRAFKKFCWTKSIPPKPC-OH; disulfide 18-28)
Ki (trypsin): 6.5 µM
MIC Proteus mirabilis 1376 (Proteus mirabilis 1376): — (no detectable activity in MIC assay in dose of 200 µg/mL or in trypsin inhibition assay at concentration of 160 μg/mL)
MIC Candida albicans 08030102 [1]: 4.69 µg/mL (≈ 1.32 µM)
MIC Aeromonas sobria (Aeromonas sobria): 18.75 µg/mL (≈ 5.27 µM)
MIC Vibrio brasiiensis (Vibrio brasiiensis): 4.69 µg/mL (≈ 1.32 µM)
MIC S. Maltophilia 090223 (S. Maltophilia 090223): 4.69 µg/mL (≈ 1.32 µM)
MIC Vibrio harveyi (Vibrio harveyi): 18.75 µg/mL (≈ 5.27 µM)
MIC E. Coli 08032823 (E. Coli 08032823): 37.5 µg/mL (≈ 10.5 µM)
MIC Edwardsiella tarda (Edwardsiella tarda): — (no detectable activity in MIC assay in dose of 200 µg/mL or in trypsin inhibition assay at concentration of 160 μg/mL)
MIC Nocardia asteroides 08052412 [2]: 4.69 µg/mL (≈ 1.32 µM)
MIC Candida glabrata 08A802 (Candida glabrata 08A802): 9.38 µg/mL (≈ 2.64 µM)
MIC P. Aeruginosa 08021015 (P. Aeruginosa 08021015): — (no detectable activity in MIC assay in dose of 200 µg/mL or in trypsin inhibition assay at concentration of 160 μg/mL)
MIC K. Pneumoniae 08040202 (K. Pneumoniae 08040202): — (no detectable activity in MIC assay in dose of 200 µg/mL or in trypsin inhibition assay at concentration of 160 μg/mL)
MIC S. Aureus 08032706 (S. Aureus 08032706): — (no detectable activity in MIC assay in dose of 200 µg/mL or in trypsin inhibition assay at concentration of 160 μg/mL)
MIC S. Aureus 08032810 (S. Aureus 08032810): — (no detectable activity in MIC assay in dose of 200 µg/mL or in trypsin inhibition assay at concentration of 160 μg/mL)
MIC S. Aureus 08032615 (S. Aureus 08032615): — (no detectable activity in MIC assay in dose of 200 µg/mL or in trypsin inhibition assay at concentration of 160 μg/mL)
MIC K. Pneumoniae 08031012 (K. Pneumoniae 08031012): — (no detectable activity in MIC assay in dose of 200 µg/mL or in trypsin inhibition assay at concentration of 160 μg/mL)
MIC Escherichia coli ATCC25922 [3]: 37.5 µg/mL (≈ 10.5 µM)
MIC Vibrio cholerae (Vibrio cholerae): 9.38 µg/mL (≈ 2.64 µM)
MIC Enterococcus faecium 08052315 [4]: 9.38 µg/mL (≈ 2.64 µM)
MIC Bacillus subtilis 08042313 [5]: 37.5 µg/mL (≈ 10.5 µM)
MIC Aeromonas veronii (Aeromonas veronii): 9.38 µg/mL (≈ 2.64 µM)
MIC E. Coli 08040726 (second line with this strain number) (E. coli 08040726 [6]): — (no detectable activity in MIC assay in dose of 200 µg/mL or in trypsin inhibition assay at concentration of 160 μg/mL)
time of killing toward E. coli (E. coli 08040726 [7]; 1xMIC): ≤ 2 h
time of killing toward E. coli (E. coli 08040726 [7]; 5xMIC): ≤ 0.5 h
MIC Staphylococcus epidermidis [8]: — (no detectable activity in MIC assay in dose of 200 µg/mL or in trypsin inhibition assay at concentration of 160 μg/mL)
MIC E. Coli 08032813 (E. Coli 08032813): — (no detectable activity in MIC assay in dose of 200 µg/mL or in trypsin inhibition assay at concentration of 160 μg/mL)
MIC Vibrio Parahaemolyticus (Vibrio Parahaemolyticus): 2.37 µg/mL (≈ 0.667 µM)
damage of established C. albicans biofilm ([9]; 5 μg/mL, biofilm preformed 72 h, XTT metabolic activity, Fig. 2B): evident antifungal activity
killing of C. albicans in preformed biofilm ([9]; 50 μg/mL, PI/SYBR Green I staining, fluorescence microscopy, Fig. 2C): destroy all of the cell membranes
